Results from patent publication US8354436B2 (4SC Discovery GmbH, priority 2011, dated 2013).
Like-named read-outs stand apart in the source and are kept apart here.

What was measured:
Format in all cases: cell-based
Conditions in all cases: 48 hours
IL-17FF = IL-17FF production by PHA-stimulated human PBMC (human IL-17F ELI-Pair)
In short: (§1)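 Supernatant cytokine levels are read by bead-based Luminex or sandwich ELISA after 48 h culture of PHA-stimulated (2 μg/ml) human PBMC with compound. Cells are seeded at 1×10^5 per well; IC50 values derive from semilogarithmic dilution series.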

IFN-γ = IFN-γ production by PHA-stimulated human PBMC (OptEIA human IFN-g ELISA)
In short: as §1

[1] = tested on: PBMC from healthy human donors; test: T cell proliferation assay (PHA-stimulated human PBMC, BrdU ELISA)
In short: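 Healthy-donor PBMC isolated on Ficoll, seeded at 1×10⁵ cells/well in RPMI with 10% dialysed FCS, stimulated with 2 μg/ml PHA in presence of test compound. Proliferation read after 48 hours by BrdU-incorporation ELISA.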

[2] = PHA-stimulated human PBMC, column B, read-out: IC50 (IL-17FF)
[3] = PHA-stimulated human PBMC, column C, read-out: IC50 (IFNγ)
[4] = PHA-stimulated human PBMC, column D, read-out: IC50 (Tcell proliferation)
[5] = human PBMC, 2 μg/ml PHA, read-out: B: IC50 (IL-17FF)
[6] = human PBMC, 2 μg/ml PHA, read-out: C: IC50 (IFNγ)
[7] = human PBMC, 2 μg/ml PHA, read-out: D: IC50 (Tcell proliferation)

| SMILES | IC50 (IL-17FF; [2]) | IC50 (IFN-γ; [3]) | IC50 [1, 4] | IC50 (IL-17FF; [5]) | IC50 (IFN-γ; [6]) | IC50 [1, 7] |
| --- | --- | --- | --- | --- | --- | --- |
| CNC(=S)c1c(-c2c(F)cccc2Cl)noc1-c1cnn(-c2ccc(F)cc2)c1C(F)(F)F [Example I-76, 3-(2-chloro-6-fluorophenyl)-5-(1-(4-fluorophenyl)-5-(trifluoromethyl)-1H-pyrazol-4-yl)-N-methylisoxazole-4-carbothioamide] | 1000 to 10000 nM | 100 to 1000 nM | 1000 to 10000 nM | – | – | – |
| CON(C)C(=O)c1c(-c2c(F)cccc2Cl)noc1-c1cnn(-c2cccc(F)c2)c1C(F)(F)F [Example I-135, 3-(2-chloro-6-fluorophenyl)-5-(1-(3-fluorophenyl)-5-(trifluoromethyl)-1H-pyrazol-4-yl)-N-methoxy-N-methylisoxazole-4-carboxamide] | 100 to 1000 nM | 100 to 1000 nM | 100 to 1000 nM | – | – | – |
| COC(=O)c1c(-c2ccccc2)noc1-c1cnn(-c2ccccc2F)c1C(F)(F)F [Example I-61, methyl 5-(1-(2-fluorophenyl)-5-(trifluoromethyl)-1H-pyrazol-4-yl)-3-phenylisoxazole-4-carboxylate] | 1000 to 10000 nM | 1000 to 10000 nM | 1000 to 10000 nM | – | – | – |
| Fc1ccccc1-n1ncc(-c2onc(-c3c(F)cccc3Cl)c2-c2nnco2)c1C(F)(F)F [Example 15, 2-(3-(2-chloro-6-fluorophenyl)-5-(1-(2-fluorophenyl)-5-(trifluoromethyl)-1H-pyrazol-4-yl)isoxazol-4-yl)-1,3,4-oxadiazole] | – | – | – | 100 to 1000 nM | 100 to 1000 nM | 100 to 1000 nM |
| COC(=O)c1c(-c2ccc(Cl)cc2Cl)noc1-c1cnn(-c2cccc(F)c2)c1C(F)(F)F [Example I-111, methyl 3-(2,4-dichlorophenyl)-5-(1-(3-fluorophenyl)-5-(trifluoromethyl)-1H-pyrazol-4-yl)isoxazole-4-carboxylate] | 1000 to 10000 nM | 1000 to 10000 nM | 100 to 1000 nM | – | – | – |
| CCOC(=O)c1c(-c2c(F)cccc2Cl)noc1-c1cnn(-c2ccc([N+](=O)[O-])cc2)c1C(F)(F)F [IB-94, ethyl 3-(2-chloro-6-fluorophenyl)-5-(1-(4-nitrophenyl)-5-(trifluoromethyl)-1H-pyrazol-4-yl)isoxazole-4-carboxylate] | 1000 to 10000 nM | 1000 to 10000 nM | 1000 to 10000 nM | – | – | – |
| CCOC(=O)c1c(-c2c(F)cccc2Cl)noc1-c1cnn(CC2CCOCC2)c1C(F)(F)F [IB-81, ethyl 3-(2-chloro-6-fluorophenyl)-5-(1-((tetrahydro-2H-pyran-4-yl)methyl)-5-(trifluoromethyl)-1H-pyrazol-4-yl)isoxazole-4-carboxylate] | 100 to 1000 nM | 100 to 1000 nM | 100 to 1000 nM | – | – | – |
| CCOC(=O)c1c(-c2ccncc2F)noc1-c1cnn(-c2cccc(F)c2)c1C(F)(F)F [IB-14, ethyl 5-(1-(3-fluorophenyl)-5-(trifluoromethyl)-1H-pyrazol-4-yl)-3-(3-fluoropyridin-4-yl)isoxazole-4-carboxylate] | 100 to 1000 nM | 1000 to 10000 nM | 1000 to 10000 nM | – | – | – |
| Fc1cccc(-n2ncc(-c3onc(-c4c(F)cccc4Cl)c3-c3nnc(C(F)(F)F)o3)c2C(F)(F)F)c1 [Example 6, 2-(3-(2-chloro-6-fluorophenyl)-5-(1-(3-fluorophenyl)-5-(trifluoromethyl)-1H-pyrazol-4-yl)isoxazol-4-yl)-5-(trifluoromethyl)-1,3,4-oxadiazole] | – | – | – | 10 to 100 nM | 10 to 100 nM | 10 to 100 nM |
| Cc1nnc(-c2c(-c3c(F)cccc3Cl)noc2-c2cnn(-c3ccncc3)c2C(F)(F)F)o1 [Example B-19, 2-(3-(2-chloro-6-fluorophenyl)-5-(1-(pyridin-4-yl)-5-(trifluoromethyl)-1H-pyrazol-4-yl)isoxazol-4-yl)-5-methyl-1,3,4-oxadiazole] | – | – | – | 100 to 1000 nM | 100 to 1000 nM | 100 to 1000 nM |
| CC(=O)Nc1c(-c2c(F)cccc2Cl)noc1-c1cnn(-c2cccc(F)c2)c1C(F)(F)F [Example I-139, N-(3-(2-chloro-6-fluorophenyl)-5-(1-(3-fluorophenyl)-5-(trifluoromethyl)-1H-pyrazol-4-yl)isoxazol-4-yl)acetamide] | 1000 to 10000 nM | 1000 to 10000 nM | 1000 to 10000 nM | – | – | – |
| CSC(=O)c1c(-c2c(F)cccc2Cl)noc1-c1cnn(-c2cccnc2)c1C(F)(F)F [IB-68, S-methyl 3-(2-chloro-6-fluorophenyl)-5-(1-(pyridin-3-yl)-5-(trifluoromethyl)-1H-pyrazol-4-yl)isoxazole-4-carbothioate] | < 10 nM | < 10 nM | 10 to 100 nM | – | – | – |
| Fc1cccc(Cl)c1-c1noc(-c2cnn(-c3cccc(Cl)c3)c2C(F)(F)F)c1-c1nnco1 [Example B-5, 2-(3-(2-chloro-6-fluorophenyl)-5-(1-(3-chlorophenyl)-5-(trifluoromethyl)-1H-pyrazol-4-yl)isoxazol-4-yl)-1,3,4-oxadiazole] | – | – | – | < 10 nM | < 10 nM | < 10 nM |
| CCOC(=O)c1c(-c2onc(-c3c(F)cccc3Cl)c2C(=O)OC)cnn1-c1ccc(Cl)cc1Cl [Example I-6, methyl 3-(2-chloro-6-fluorophenyl)-5-(1-(2,4-dichlorophenyl)-5-(ethoxycarbonyl)-1H-pyrazol-4-yl)isoxazole-4-carboxylate] | 1000 to 10000 nM | 1000 to 10000 nM | 1000 to 10000 nM | – | – | – |
| CCOC(=O)c1c(-c2c(F)cccc2Cl)noc1-c1cnn(-c2ccccc2NC(C)=O)c1C(F)(F)F [IB-1] | 1000 to 10000 nM | 100 to 1000 nM | 1000 to 10000 nM | – | – | – |
| Fc1cccc(Cl)c1-c1noc(-c2cnn(-c3ccncc3)c2C(F)(F)F)c1-c1nnco1 [Example B-16, 2-(3-(2-chloro-6-fluorophenyl)-5-(1-(pyridin-4-yl)-5-(trifluoromethyl)-1H-pyrazol-4-yl)isoxazol-4-yl)-1,3,4-oxadiazole] | – | – | – | 100 to 1000 nM | 100 to 1000 nM | 100 to 1000 nM |
| CCOC(=O)c1c(-c2ccncc2F)noc1-c1cnn(-c2ccccc2F)c1C(F)(F)F [IB-15, ethyl 5-(1-(2-fluorophenyl)-5-(trifluoromethyl)-1H-pyrazol-4-yl)-3-(3-fluoropyridin-4-yl)isoxazole-4-carboxylate] | 1000 to 10000 nM | 100 to 1000 nM | 100 to 1000 nM | – | – | – |
| COC(=O)c1c(-c2c(F)cccc2Cl)noc1-c1cnn(-c2ccccn2)c1C(F)(F)F [Example I-84, methyl 3-(2-chloro-6-fluorophenyl)-5-(1-(pyridin-2-yl)-5-(trifluoromethyl)-1H-pyrazol-4-yl)isoxazole-4-carboxylate] | < 10 nM | < 10 nM | < 10 nM | – | – | – |
| COC(=O)c1c(-c2c(F)cccc2Cl)noc1-c1cnn(-c2ccc(C(C)(C)C)cc2)c1C(F)(F)F [Example I-81, methyl 5-(1-(4-tert-butylphenyl)-5-(trifluoromethyl)-1H-pyrazol-4-yl)-3-(2-chloro-6-fluorophenyl)isoxazole-4-carboxylate] | 1000 to 10000 nM | 100 to 1000 nM | 1000 to 10000 nM | – | – | – |
| Oc1csc(-c2c(-c3c(F)cccc3Cl)noc2-c2cnn(-c3cccc(F)c3)c2C(F)(F)F)n1 [Example 9, 2-(3-(2-chloro-6-fluorophenyl)-5-(1-(3-fluorophenyl)-5-(trifluoromethyl)-1H-pyrazol-4-yl)isoxazol-4-yl)thiazol-4-ol] | – | – | – | 100 to 1000 nM | 100 to 1000 nM | 100 to 1000 nM |
| COC(=O)c1c(-c2ccccc2Cl)noc1-c1cnn(-c2cccc(F)c2)c1C(F)(F)F [Example I-95, methyl 3-(2-chlorophenyl)-5-(1-(3-fluorophenyl)-5-(trifluoromethyl)-1H-pyrazol-4-yl)isoxazole-4-carboxylate] | < 10 nM | < 10 nM | < 10 nM | – | – | – |
| COc1csc(-c2c(-c3c(F)cccc3Cl)noc2-c2cnn(-c3cccc(F)c3)c2C(F)(F)F)n1 [Example 10, 3-(2-chloro-6-fluorophenyl)-5-(1-(3-fluorophenyl)-5-(trifluoromethyl)-1H-pyrazol-4-yl)-4-(4-methoxythiazol-2-yl)isoxazole] | – | – | – | 100 to 1000 nM | 10 to 100 nM | 10 to 100 nM |
| COc1cccc(Cl)c1-c1noc(-c2cnn(-c3ccccc3Cl)c2C(F)(F)F)c1-c1cnco1 [Example B-34, 3-(2-chloro-6-methoxyphenyl)-5-(1-(2-chlorophenyl)-5-(trifluoromethyl)-1H-pyrazol-4-yl)-4-(oxazol-5-yl)isoxazole] | – | – | – | 100 to 1000 nM | 100 to 1000 nM | 100 to 1000 nM |
| Fc1ccc(-n2ncc(-c3onc(-c4c(F)cccc4Cl)c3Br)c2C(F)(F)F)c(F)c1 [IB-24, 4-bromo-3-(2-chloro-6-fluorophenyl)-5-(1-(2,4-difluorophenyl)-5-(trifluoromethyl)-1H-pyrazol-4-yl)isoxazole] | 1000 to 10000 nM | 1000 to 10000 nM | 1000 to 10000 nM | – | – | – |
| CCOC(=O)c1c(-c2c(Cl)cncc2Cl)noc1-c1cnn(-c2ccccc2Cl)c1C(F)(F)F [IB-16, ethyl 5-(1-(2-chlorophenyl)-5-(trifluoromethyl)-1H-pyrazol-4-yl)-3-(3,5-dichloropyridin-4-yl)isoxazole-4-carboxylate] | 100 to 1000 nM | 1000 to 10000 nM | 1000 to 10000 nM | – | – | – |
| CCOC(=O)c1c(-c2ccccc2Cl)noc1-c1cnn(-c2cccc(Cl)c2)c1C(F)(F)F [IB-41, ethyl 3-(2-chlorophenyl)-5-(1-(3-chlorophenyl)-5-(trifluoromethyl)-1H-pyrazol-4-yl)-isoxazole-4-carboxylate] | < 10 nM | < 10 nM | 10 to 100 nM | – | – | – |
